Laboratory results from EP0978280A1, “2-[…]” (priority 1997, dated 1998).
Where a name gives a salt, the structure may show the parent alone.

Biological target: T1, Nicotinic acetylcholine receptor (Rattus norvegicus, UniProt P09483+P12390)
T1 construct: the rat was decapitated, and the whole brain was removed and homogenized; from tissue; host or cells: rat whole brain membrane fraction
Details: 10 nM of the test drug; 1 nM of ^3H-cytidine; rat whole brain membrane fraction; 4°C for 75 min; nonspecific binding with 10 µM (-)nicotine
Experimental: Nicotinic acetylcholine receptor binding assay
The membrane fraction was prepared in accordance with the protocol described in Brain Res., 100, 81-87 (1977). Thus, the rat was decapitated, and the whole brain was removed and homogenized with 15 volumes of cold 0.32 M aqueous sucrose solution using a Teflon homogenizer. The homogenate was centrifuged at 4°C and 1,000 x g for 10 mm. and the supernatant obtained was centrifuged at 4°C and 20,000 x g for 20 min. Then, ice-cold distilled water was added to the pellet, and the pellet was suspended using Hiscotron®. The suspension was centrifuged at 4°C and 8,000 x g for 20 min. and the supernatant and the buffy coat layer were recovered and centrifuged again at 4°C and 40,000 x g for 20 min. The pellet obtained was suspended in cold distilled water and stored at -80°C until used.
The receptor binding experiment was performed in accordance with the protocol described in J. Pharamcol. Exp. Ther., 270, 310-318 (1994). Thus, the rat whole brain membrane fraction (ca 200 µg) was incubated in BSS-Tris buffer [composition mM: NaCl 120, KCl 5, CaCl22, MgCl22, Tris-HCl 50 (pH=7.4, at 4°C)] containing 1 nM of ^3H-cytidine and 10 nM of the test drug at 4°C for 75 min. To stop the reaction, 4 ml of cold BSS-Tris buffer was added and the reaction mixture was immediately suction-filtered on GF/B glass fiber filter paper which had been pre-soaked in 0.5% polyethyleneimine. The filter paper was recovered, 4 ml of ACS-II (Amersham, TM) was added, and the ^3H radioactivity was determined with a scintillation counter. Based on the value (specific binding) obtained after subtraction of the ^3H-binding (nonspecific binding) amount in the presence of 10 µM (-)nicotine, the inhibition rate of ^3H-cytidine binding at the 10 nM concentration of each drug was calculated.

T1 sequence (P09483 31-630): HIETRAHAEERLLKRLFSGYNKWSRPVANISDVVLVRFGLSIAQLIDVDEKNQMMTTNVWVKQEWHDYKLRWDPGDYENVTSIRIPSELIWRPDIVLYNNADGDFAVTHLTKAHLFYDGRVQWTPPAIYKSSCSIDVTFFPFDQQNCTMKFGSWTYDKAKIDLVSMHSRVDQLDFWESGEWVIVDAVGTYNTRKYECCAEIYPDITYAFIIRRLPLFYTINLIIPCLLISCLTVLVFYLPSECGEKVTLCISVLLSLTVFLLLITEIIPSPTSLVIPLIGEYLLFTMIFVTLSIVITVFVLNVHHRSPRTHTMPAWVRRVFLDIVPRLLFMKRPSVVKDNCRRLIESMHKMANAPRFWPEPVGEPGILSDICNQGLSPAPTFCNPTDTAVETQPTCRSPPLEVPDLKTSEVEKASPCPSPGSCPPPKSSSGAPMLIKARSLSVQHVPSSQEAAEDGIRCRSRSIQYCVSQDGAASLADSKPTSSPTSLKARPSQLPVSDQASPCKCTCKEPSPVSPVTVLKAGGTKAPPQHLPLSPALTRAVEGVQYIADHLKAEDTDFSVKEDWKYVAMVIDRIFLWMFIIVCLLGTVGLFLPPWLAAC
T1 sequence (P12390 25-500): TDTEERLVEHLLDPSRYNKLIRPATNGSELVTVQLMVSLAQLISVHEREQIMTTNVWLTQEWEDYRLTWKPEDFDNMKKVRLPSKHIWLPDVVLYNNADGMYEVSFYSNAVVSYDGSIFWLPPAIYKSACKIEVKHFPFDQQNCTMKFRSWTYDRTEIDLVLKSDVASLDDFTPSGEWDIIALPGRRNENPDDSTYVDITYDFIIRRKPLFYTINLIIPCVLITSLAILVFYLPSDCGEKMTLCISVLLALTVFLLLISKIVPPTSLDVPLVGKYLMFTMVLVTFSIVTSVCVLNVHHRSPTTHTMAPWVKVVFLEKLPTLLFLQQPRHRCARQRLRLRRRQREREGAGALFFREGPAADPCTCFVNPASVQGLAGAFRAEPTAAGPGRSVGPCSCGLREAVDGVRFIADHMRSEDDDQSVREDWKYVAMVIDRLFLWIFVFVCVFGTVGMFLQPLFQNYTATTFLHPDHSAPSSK

Compound | Inhibition of ^3H-Cytidine binding [%]
c1cncc(C2CC3CCC2NC3)c1 (stereo not drawn) [Example 1, Syn-6-(3-pyridyl)-2-azabicyclo[2. 2. 2]octane oxalate] | 94
c1ncc(C2CC3CCC2NC3)cn1 (stereo not drawn) [Example 16, Syn-6-(5-pyrimidinyl)-2-azabicyclo[2. 2. 2]octane] | 93
Cc1cc(C2CC3CCC2NC3)on1 (stereo not drawn) [Example 18, Syn-6-(3-methyl-5-isoxazolyl)-2-azabicyclo[2. 2. 2]octane] | 84
C1=C(c2cnccn2)C2CCC1CN2 (stereo not drawn) [Example 23, 6-(2-Pyrazinyl)-2-azabicyclo[2. 2. 2]oct-5-ene] | 39
Brc1cncc(C2=CC3CCC2CN3)c1 (stereo not drawn) [Example 24, 5-(5-Bromo-3-pyridyl)-2-azabicyclo[2. 2. 2]oct-5-ene] | 92
C#Cc1cncc(C2CC3CCC2NC3)c1 (stereo not drawn) [Example 28, Syn-6-(5-ethynyl-3-pyridyl)-2-azabicyclo[2. 2. 2]octane] | 91
c1ccc(-c2cncc(C3CC4CCC3NC4)c2)cc1 (stereo not drawn) [Example 29, Syn-6-(5-phenyl-3-pyridyl)-2-azabicyclo[2. 2. 2]octane] | 86
c1cncc(C2CC3CC2CN3)c1 (stereo not drawn) [Example 30, Syn-5-(3-pyridyl)-2-azabicyclo[2. 2. 1]heptane] | 87
c1cncc(C2CC3CCCC2NC3)c1 (stereo not drawn) [Example 31, Syn-8-(3-pyridyl)-7-azabicyclo[3. 2. 2.]nonane] | 84
